Measurements reported in PubChem BioAssay (NCI).
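Grown in 96-well plates, cells were treated for 48 hours with each compound at five concentrations. Insufficient inhibition: endpoint recorded as highest concentration tested. TGI: total growth inhibition.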

Columns and labels:
Assay in all cases: NCI tumour cell line growth inhibition, 48 h
[1] = test system: HCT-15 colon
[2] = test system: NCI-H23 lung
[3] = test system: PC-3 prostate
[4] = test system: NCI/ADR-RES ovarian
[5] = test system: UACC-257 melanoma
[6] = test system: MOLT-4 leukemia
[7] = test system: HT29 colon
[8] = test system: SK-MEL-2 melanoma
[9] = test system: COLO 205 colon
[10] = test system: EKVX NSCLC
[11] = test system: MDA-N
[12] = test system: RPMI-8226 leukemia
[13] = test system: SW-620 colon
[14] = test system: OVCAR-4 ovarian
[15] = test system: A498 renal
[16] = test system: MDA-MB-435
[17] = test system: DU-145 prostate
[18] = test system: SNB-19 CNS
[19] = test system: SN12C renal
[20] = test system: BT-549 breast
[21] = test system: KM12 colon
[22] = test system: M14 melanoma
[23] = test system: CCRF-CEM leukemia
[24] = test system: NCI-H460 lung
[25] = test system: K-562 leukemia
[26] = test system: SK-MEL-28 melanoma
[27] = test system: IGROV1 ovarian
[28] = test system: SNB-75 CNS
[29] = test system: SK-MEL-5 melanoma
[30] = test system: CAKI-1 renal
[31] = test system: U251 CNS
[32] = test system: UACC-62 melanoma
[33] = test system: 786-0 renal
[34] = test system: SF-268 CNS
[35] = test system: ACHN renal
[36] = test system: HL-60(TB) leukemia
[37] = test system: TK-10 renal
[38] = test system: NCI-H226 lung
[39] = test system: HS 578T breast
[40] = test system: OVCAR-5 ovarian
[41] = test system: RXF 393 renal
[42] = test system: OVCAR-3 ovarian
[43] = test system: HCT-116 colon
[44] = test system: A549 NSCLC
[45] = test system: MALME-3M melanoma
[46] = test system: SF-295 CNS
[47] = test system: OVCAR-8 ovarian
[48] = test system: HOP-62 NSCLC
[49] = test system: UO-31 renal
[50] = test system: SK-OV-3 ovarian
[51] = test system: NCI-H522 lung
[52] = test system: MDA-MB-231 breast
[53] = test system: LOX IMVI melanoma
[54] = test system: SR leukemia
[55] = test system: T-47D breast
[56] = test system: HOP-92 NSCLC
[57] = test system: SF-539 CNS
[58] = test system: HCC-2998 colon
[59] = test system: MCF7 breast

CC1CC(N)=Nc2ccccc2N1Cc1ccccc1 (configuration not stated)
TGI [1]: 29.9 µM
TGI [2]: 31.1 µM
TGI [3]: 28.2 µM
TGI [4]: 28.4 µM
TGI [5]: 25.5 µM
TGI [6]: 18.4 µM
TGI [7]: 27.4 µM
TGI [8]: 27.4 µM
TGI [9]: 28.1 µM
TGI [10]: 63.9 µM
TGI [11]: 39.6 µM
TGI [12]: 17.2 µM
TGI [13]: 25.2 µM
TGI [14]: 34.5 µM
TGI [15]: 23.3 µM
TGI [16]: 26.8 µM
TGI [17]: 32.7 µM
TGI [18]: 30.9 µM
TGI [19]: 30.2 µM
TGI [20]: 26 µM
TGI [21]: 28.2 µM
TGI [22]: 29.3 µM
TGI [23]: 33.7 µM
TGI [24]: 26.8 µM
TGI [25]: 15.7 µM
TGI [26]: 23.8 µM
TGI [27]: 19.9 µM
TGI [28]: 20.8 µM
TGI [29]: 27.8 µM
TGI [30]: 25.2 µM
TGI [31]: 28.4 µM
TGI [32]: 27.2 µM
TGI [33]: > 100 µM
TGI [34]: 26.4 µM
TGI [35]: 28.5 µM
TGI [36]: 19.5 µM
TGI [37]: 28.2 µM
TGI [38]: 30.9 µM
TGI [39]: 23.8 µM
TGI [40]: > 100 µM
TGI [41]: 24.4 µM
TGI [42]: 24.9 µM
TGI [43]: > 100 µM
TGI [44]: 32.7 µM
TGI [45]: 15.4 µM
TGI [46]: 27.8 µM
TGI [47]: 27.8 µM
TGI [48]: 27.2 µM
TGI [49]: 42.3 µM
TGI [50]: 25.9 µM
TGI [51]: 25.3 µM
TGI [52]: 27.4 µM

O=C1O/C(=C\c2ccc(O)c(Br)c2)C(c2ccc(O)cc2)=C1Cl
TGI [1]: > 100 µM
TGI [2]: 61.6 µM
TGI [3]: > 100 µM
TGI [4]: 82.4 µM
TGI [5]: > 100 µM
TGI [6]: > 100 µM
TGI [53]: > 100 µM
TGI [7]: > 100 µM
TGI [8]: > 100 µM
TGI [54]: > 100 µM
TGI [9]: > 100 µM
TGI [10]: > 100 µM
TGI [11]: 74.5 µM
TGI [12]: 34 µM
TGI [55]: > 100 µM
TGI [13]: > 100 µM
TGI [56]: > 100 µM
TGI [14]: > 100 µM
TGI [15]: 77.7 µM
TGI [57]: > 100 µM
TGI [16]: > 100 µM
TGI [17]: > 100 µM
TGI [18]: > 100 µM
TGI [21]: > 100 µM
TGI [22]: > 100 µM
TGI [23]: 41.1 µM
TGI [24]: 76.6 µM
TGI [25]: > 100 µM
TGI [26]: > 100 µM
TGI [27]: > 100 µM
TGI [28]: > 100 µM
TGI [29]: 53.5 µM
TGI [30]: > 100 µM
TGI [31]: > 100 µM
TGI [32]: > 100 µM
TGI [33]: > 100 µM
TGI [34]: 86.2 µM
TGI [35]: > 100 µM
TGI [36]: > 100 µM
TGI [37]: > 100 µM
TGI [39]: > 100 µM
TGI [40]: > 100 µM
TGI [41]: 84.4 µM
TGI [58]: > 100 µM
TGI [42]: 59.7 µM
TGI [43]: > 100 µM
TGI [59]: 49.5 µM
TGI [44]: > 100 µM
TGI [45]: > 100 µM
TGI [46]: > 100 µM
TGI [47]: > 100 µM
TGI [48]: > 100 µM
TGI [49]: > 100 µM
TGI [50]: > 100 µM
TGI [51]: 68.6 µM
